Laboratory results reported in US11591632B2, “Genetically-mutated bacterial strain for detecting estrogenic compound and method for detecting estrogenic compound using the same” (INDUSTRY-UNIVERSITY COOPERATION FOUNDATION HANYANG …, priority 2016, dated 2023).

Assays:
hERα LBD [1] = biological target: T1, hERα LBD (Homo sapiens, UniProt P03372); assay type: cell-based; details: E. coli FW102 OL2-62 pACλCI::RIP140-FLAG pBRαNTD::hERα LBD-FLAG, 20 μM IPTG, 30 minutes incubation
T1 construct: hERα LBD (N304-T553: amino acid 304, asparagine, through amino acid 553, threonine); expressed in transfected cells; host or cells: E. coli FW102 OL2-62
T1 sequence (P03372 304-553): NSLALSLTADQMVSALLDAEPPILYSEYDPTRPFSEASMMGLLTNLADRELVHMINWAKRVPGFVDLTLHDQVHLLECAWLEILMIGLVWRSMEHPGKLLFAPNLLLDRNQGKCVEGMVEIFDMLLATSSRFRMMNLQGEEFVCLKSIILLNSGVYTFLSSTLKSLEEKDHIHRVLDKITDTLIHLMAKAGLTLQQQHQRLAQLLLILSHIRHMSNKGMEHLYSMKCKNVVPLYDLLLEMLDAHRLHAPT
T1 sequence (P48552 whole entry partner, the tested form may be a part): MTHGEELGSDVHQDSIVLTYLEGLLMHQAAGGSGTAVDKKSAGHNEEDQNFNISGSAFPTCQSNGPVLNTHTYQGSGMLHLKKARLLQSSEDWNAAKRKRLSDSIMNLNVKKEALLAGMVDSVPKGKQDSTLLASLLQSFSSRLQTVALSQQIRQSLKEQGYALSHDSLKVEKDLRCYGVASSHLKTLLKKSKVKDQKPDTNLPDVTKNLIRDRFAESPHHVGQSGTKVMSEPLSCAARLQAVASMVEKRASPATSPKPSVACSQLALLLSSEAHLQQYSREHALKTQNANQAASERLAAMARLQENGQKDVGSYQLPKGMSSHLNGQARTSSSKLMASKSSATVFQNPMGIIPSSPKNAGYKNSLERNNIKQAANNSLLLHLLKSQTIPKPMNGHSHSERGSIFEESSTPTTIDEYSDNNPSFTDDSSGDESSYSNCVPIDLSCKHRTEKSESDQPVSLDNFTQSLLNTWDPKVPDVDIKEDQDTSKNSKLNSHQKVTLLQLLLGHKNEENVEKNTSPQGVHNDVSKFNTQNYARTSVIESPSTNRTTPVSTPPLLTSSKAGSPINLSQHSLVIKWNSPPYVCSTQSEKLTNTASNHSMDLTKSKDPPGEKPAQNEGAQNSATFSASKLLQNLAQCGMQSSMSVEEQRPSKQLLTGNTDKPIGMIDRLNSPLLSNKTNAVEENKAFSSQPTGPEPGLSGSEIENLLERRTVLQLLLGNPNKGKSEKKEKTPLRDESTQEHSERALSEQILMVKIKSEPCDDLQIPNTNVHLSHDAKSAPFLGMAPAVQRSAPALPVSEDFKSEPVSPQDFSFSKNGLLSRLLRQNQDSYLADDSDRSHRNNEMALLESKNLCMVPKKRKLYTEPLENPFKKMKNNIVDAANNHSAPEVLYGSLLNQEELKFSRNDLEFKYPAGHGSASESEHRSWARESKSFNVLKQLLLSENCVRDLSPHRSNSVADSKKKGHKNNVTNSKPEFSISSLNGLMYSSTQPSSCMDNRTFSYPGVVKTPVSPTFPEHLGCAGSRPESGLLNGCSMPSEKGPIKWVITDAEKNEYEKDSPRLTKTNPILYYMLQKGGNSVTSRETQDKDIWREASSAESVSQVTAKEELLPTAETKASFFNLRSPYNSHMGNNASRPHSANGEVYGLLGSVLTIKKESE
T1 sequence (P0A7Z4 1-248 partner limits assumed): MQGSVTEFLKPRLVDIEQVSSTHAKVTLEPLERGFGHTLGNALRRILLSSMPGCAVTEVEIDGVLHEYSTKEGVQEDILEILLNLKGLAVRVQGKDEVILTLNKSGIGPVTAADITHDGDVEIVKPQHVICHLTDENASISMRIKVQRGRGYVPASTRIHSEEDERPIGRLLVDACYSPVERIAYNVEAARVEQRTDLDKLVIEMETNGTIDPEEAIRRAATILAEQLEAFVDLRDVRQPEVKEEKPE
T1 sequence (P03034 whole entry partner, the tested form may be a part): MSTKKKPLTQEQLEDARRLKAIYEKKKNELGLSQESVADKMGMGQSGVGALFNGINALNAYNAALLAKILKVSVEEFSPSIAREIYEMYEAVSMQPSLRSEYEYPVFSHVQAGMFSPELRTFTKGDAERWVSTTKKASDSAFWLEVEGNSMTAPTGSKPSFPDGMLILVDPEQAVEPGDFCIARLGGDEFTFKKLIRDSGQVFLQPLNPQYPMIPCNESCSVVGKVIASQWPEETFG
Description: (§1) Afterward, estrogens and EDCs were added at corresponding concentrations, and the cells were further incubated for 30 minutes. Subsequently, 800 μL of the cells were harvested, and resuspended in 800 μL of a buffer solution (60 mM of Na2HPO4, 40 mM of NaH2PO4, 10 mM of KCl, 1 mM of MgSO47H2O, 400 μM of dithiothreitol), followed by measuring OD600 (cell content). Afterward, the cells were lysed by ultrasonication and treated with 160 μL of 4 mg/mL ONPG, and thus a time to change a color of the specimen into yellow was recorded. When the color of the specimen changed to yellow, the reaction was stopped with 400 μL of 1M Na2CO3.

hERα LBD [2] = details: LE7197, lacZ expression in Miller units, with IPTG, 30 minutes incubation
Description: as §1, with “The E. coli FW102 OL2-62 pACλCI::TIF2 BD-FLAG pBRαNTD::hERα LBD-FLAG strain was inoculated, and cultured up to OD600˜ 0.4 (20 μM IPTG added; the inducible substance for inducing expression of λCI-TIF2 BD-FLAG and αNTD-hERα LBD-FLAG). Afterward, estrogens” for “Afterward, estrogens”
Afterward, through β-galactosidase analysis, the expression of a reporter gene, the lacZ gene, was expressed in terms of Miller units.

| Molecule | Miller units as a function of compound concentration in the specimen (hERα LBD [1]) | concentration that can be sensed/detected by sensor strain (hERα LBD [2]) |
| --- | --- | --- |
| CC(C)(c1ccc(O)cc1)c1ccc(O)cc1 [bisphenol A] | the higher the Miller units |  |
| Oc1ccc(Cc2ccc(O)cc2)cc1 [bisphenol F] |  | several hundred |
| O=S(=O)(c1ccc(O)cc1)c1ccc(O)cc1 [bisphenol S] |  | several hundred |
| nonylphenol | the higher the Miller units | approximately 100 nM |
